Where two headings read alike, the source gives them in different places. Marks after values point to notes of the source that are not given here.
Tests used:
[1] = tested on: microfilariae of Dirofilaria immitis; assay: Dirofilaria immitis, Microfilaria (DiMf) In Vitro Assay; type: cell-based; details: for minimal effective concentration: Dirofilaria immitis, 72 h, read-out: DiMf MED, Minimum Effective Dose, D. immitis microfilariae motility, in vitro
D. immitis L4 larvae = assay: Dirofilaria immitis, L4 Stage (DiL4) In Vitro Assay; type: cell-based; details: for DiMf/DiL4: larval stage selectivity; for DiL4 MED: Minimum Effective Dose, D. immitis L4 larvae motility, in vitro
[2] = tested on: third stage larvae of Haemonchus contortus; assay: Haemonchus contortus, Larvae Stage 3 (HcL3) In Vitro Assay; type: cell-based; details: for minimal effective concentration: Haemonchus contortus, 96 h; for HcL3 MED: Minimum Effective Dose, H. contortus third stage larvae, approximately 96 hours
[3] = tested on: circulating microfilariae; assay: Heartworm Positive Dog Studies
[4] = tested on: circulating microfilariae; details: dog, in vivo
[5] = read-out: HcL3 MED (symbol after Ex#), approximately 96 hours incubation, multiple-resistant field isolate

COc1cc(C)c(Cc2ccc(C[C@H]3OC(=O)[C@H](CC(C)C)N(C)C(=O)[C@@H](C)OC(=O)[C@H](CC(C)C)N(C)C(=O)[C@@H](Cc4ccccc4)OC(=O)[C@H](CC(C)C)N(C)C(=O)[C@@H](C)OC(=O)[C@H](CC(C)C)N(C)C3=O)cc2)cn1 [Example 4-126, (3S,6R,9S,12R,15S,18R,21S,24R)-6-benzyl-3,9,15,21-tetraisobutyl-18-(4-((6-methoxy-4-methylpyridin-3-yl)methyl)benzyl)-4,10,12,16,22,24-hexamethyl-1,7,13,19-tetraoxa-4,10,16,22-tetraazacyclotetracosan-2,5,8,11,14,17,20,23-octaone]
minimal effective concentration [1]: 0.003 µM | minimal effective concentration (D. immitis L4 larvae; Dirofilaria immitis, 72 h, read-out: DiL4 MED, Minimum Effective Dose, D. immitis L4 larvae motility, in vitro): 0.0002 µM | DiMf/DiL4 (D. immitis L4 larvae; ratio of DiMf MED to DiL4 MED): 15 | minimal effective concentration [2, 5]: 1 to 3.3 µM | minimal effective concentration ([2]; read-out: HcL3 MED, Minimum Effective Dose, H. contortus third stage larvae, approximately 96 hours): 1.8 µM

Cc1ncccc1Cc1ccc(C[C@H]2OC(=O)[C@H](CC(C)C)N(C)C(=O)[C@@H](C)OC(=O)[C@H](CC(C)C)N(C)C(=O)[C@@H](Cc3ccccc3)OC(=O)[C@H](CC(C)C)N(C)C(=O)[C@@H](C)OC(=O)[C@H](CC(C)C)N(C)C2=O)cc1 [Example 4-139]
DiMf MED ([1]; Minimum Effective Dose, D. immitis microfilariae motility, in vitro): 1 nM | DiL4 MED (D. immitis L4 larvae): 0.4 nM | DiMf/DiL4 (D. immitis L4 larvae; ratio of DiMf MED to DiL4 MED): 2.5 | HcL3 MED [2]: 1 µM | HcL3 MED (symbol after Ex#) ([2]; approximately 96 hours incubation, multiple-resistant field isolate): 4-139* (Examples with an asterisk (*) have HcL3 MED values≤1 μM)

Cc1cnsc1Cc1ccc(C[C@H]2OC(=O)[C@H](CC(C)C)N(C)C(=O)[C@@H](C)OC(=O)[C@H](CC(C)C)N(C)C(=O)[C@@H](Cc3ccc(Cc4sncc4C)cc3)OC(=O)[C@H](CC(C)C)N(C)C(=O)[C@@H](C)OC(=O)[C@H](CC(C)C)N(C)C2=O)cc1 [Example 4-141, (3S,6R,9S,12R,15S,18R,21S,24R)-3,9,15,21-tetraisobutyl-4,6,10,16,18,22-hexamethyl-12,24-bis(4-((4-methylisothiazol-5-yl)methyl)benzyl)-1,7,13,19-tetraoxa-4,10,16,22-tetraazacyclotetracosan-2,5,8,11,14,17,20,23-octaone]
minimal effective concentration [1]: 0.003 µM | DiL4 MED (D. immitis L4 larvae; listed as (4-141)): 1 nM | DiMf/DiL4 (D. immitis L4 larvae; ratio of DiMf MED to DiL4 MED, listed as (4-141)): 3 | minimal effective concentration [2, 5]: 1 to 3.3 µM | HcL3 MED ([2]; listed as (4-141)): 1.8 µM

CC(C)C[C@H]1C(=O)O[C@H](Cc2ccc(N3CCOCC3)cc2)C(=O)N(C)[C@@H](CC(C)C)C(=O)O[C@H](C)C(=O)N(C)[C@@H](CC(C)C)C(=O)O[C@H](Cc2ccc(N3CCOCC3)cc2)C(=O)N(C)[C@@H](CC(C)C)C(=O)O[C@H](C)C(=O)N1C [emodepside, Emodepside, reference compound]
selectivity against D. immitis L4 (DiMf/DiL4) (D. immitis L4 larvae; ratio of DiMf MED to DiL4 MED): 1 × | adverse effects / clinical observations ([3]; heartworm positive dogs, oral, emodepside 1 mg/kg, Example 3-9 3 mg/kg): all treated dogs exhibited adverse effects consistent with dead or dying circulating microfilariae | Mean MF/mL, Day 0, Post-dose, 2 hours ([3]; heartworm positive dogs, oral, emodepside 1 mg/kg, Example 3-9 3 mg/kg, 2 hours post-dose, blood): 8,300 MF/mL | Mean MF/mL, Day 0 Pre-dose ([3]; heartworm positive dogs, oral, emodepside 1 mg/kg, Example 3-9 3 mg/kg, Day 0 pre-dose, blood): 61,000 MF/mL | Mean MF/mL, Day 1 ([3]; heartworm positive dogs, oral, emodepside 1 mg/kg, Example 3-9 3 mg/kg, Day 1, blood): 4,500 MF/mL | Mean MF/mL, Day 7 ([3]; heartworm positive dogs, oral, emodepside 1 mg/kg, Example 3-9 3 mg/kg, Day 7, blood): 8,800 MF/mL | % Reduction of MF, Day 0, Post-dose, 2 hours ([3]; vs pre-dose (day 0) levels, oral, emodepside 1 mg/kg, Example 3-9 3 mg/kg, 2 hours post-dose): 87% | % Reduction of MF, Day 0, Post-dose, 2 hours ([3]; vs pre-dose (day 0) levels, oral, emodepside 1 mg/kg, Example 3-9 3 mg/kg, 2 hours post-dose, listed as Emodepside): 87% | % Reduction of MF, Day 1 ([3]; vs pre-dose (day 0) levels, oral, emodepside 1 mg/kg, Example 3-9 3 mg/kg, Day 1): 93% | % Reduction of MF, Day 7 ([3]; vs pre-dose (day 0) levels, oral, emodepside 1 mg/kg, Example 3-9 3 mg/kg, Day 7): 86%

(3S,6R,9S,12R,15S,18R,21S,24R)-6-benzyl-18-(4-(hydroxy(6-methoxypyridin-3-yl)methyl)benzyl)-3,9,15,21-tetraisobutyl-4,10,12,16,22,24-hexamethyl-1,7,13,19-tetraoxa-4,10,16,22-tetraazacyclotetracosan-2,5,8,11,14,17,20,23-octaone [Example 3-9]
adverse effects / clinical observations [4]: no adverse effects observed | % Reduction of MF, Day 0, Post-dose, 2 hours ([3]; dog, in vivo): −11% | % Reduction of MF, Day 1 ([3]; dog, in vivo): −28% | % Reduction of MF, Day 7 ([3]; dog, in vivo): −50% | Mean MF/mL, Day 0, Post-dose, 2 hours ([3]; dog, in vivo): 20,000 MF/mL | Mean MF/mL, Day 0 Pre-dose ([3]; dog, in vivo): 18,000 MF/mL | Mean MF/mL, Day 1 ([3]; dog, in vivo): 23,000 MF/mL | Mean MF/mL, Day 7 ([3]; dog, in vivo): 25,000 MF/mL | % Reduction of MF, Day 14 ([3]; dog, in vivo, po, 3 mg/kg): −22% | % Reduction of MF, Day 21 ([3]; dog, in vivo, po, 3 mg/kg): −33% | Mean MF/mL, Day 14 ([3]; dog, in vivo, po, 3 mg/kg): 22,000 MF/mL | Mean MF/mL, Day 21 ([3]; dog, in vivo, po, 3 mg/kg): 24,000 MF/mL
